{
  "source": "patent US20240181081A1",
  "about": "“Compositions and Methods for Treatment of Myotonic Dystrophy Type 1 with CRISPR/SACAS9” (Vertex Pharmaceuticals Incorporated, priority 2021, published 2024)",
  "key": {"[1]": {"test_system": "CTG repeat expansion in the 3′ UTR of human DMPK gene", "assay": "DOUBLE-cut screening: CTG repeat excision by loss-of-signal ddPCR in primary DM1 patient myoblasts", "format": "cell-based", "conditions": "sgRNA pair RNP, mean of upstream and downstream ddPCR assays; for % of CTG repeat excision efficiency by ddPCR (DNA-PKi): 3 μM Compound 6 for 48 hrs; for % of CTG repeat excision efficiency by ddPCR (Vehicle): DMSO 48 hrs", "how_it_was_run": "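Paired upstream/downstream sgRNAs, each as RNP with recombinant SaCas9 (20 pmol protein:60 pmol sgRNA), mixed 1:1 and nucleofected into primary DM1 myoblasts; cells then given DMSO or 3 μM DNA-PKi Compound 6 for 48 hrs. Genomic DNA taken 72 hrs post-nucleofection; excision is mean of upstream and downstream loss-of-signal ddPCR, normalized to DMPK exon 1 reference.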"}, "[2]": {"test_system": "CUG RNA foci in primary DM1 patient myoblasts", "assay": "DOUBLE-cut screening: FISH staining of RNA foci in primary DM1 patient myoblasts", "format": "cell-based, human", "conditions": "sgRNA pair RNP, 72 hrs post nucleofection; for % of CUG foci free nuclei (DNA-PKi): 3 μM Compound 6 for 48 hrs; for % of CUG foci free nuclei (Vehicle): DMSO 48 hrs", "how_it_was_run": "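Primary DM1 patient myoblasts nucleofected with paired upstream/downstream sgRNA–SaCas9 RNPs (20 pmol protein, 60 pmol sgRNA each), then treated 48 hrs with DMSO or 3 μM DNA-PK inhibitor. At 72 hrs post nucleofection, CUG foci stained by Cy3-PNA(CAG)5 FISH with MBNL1 co-staining and quantified by high-content confocal imaging.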"}},
  "data": [
    {"substance": "SaU8 + SaD15: SaCas9 sgRNA pair, SEQ ID NOs: 8 and 23 (guide 1 GGCTCGAAGGGTCCTTGTAGCC; guide 2 GACAATAAATACCGAGGAATGT; listed as DNA, chemistry not fully specified)", "values": [
      {"measurement": "% of CTG repeat excision efficiency by ddPCR (DNA-PKi)", "setting": "[1]", "value": 57.24, "unit": "%"},
      {"measurement": "% of CTG repeat excision efficiency by ddPCR (Vehicle)", "setting": "[1]", "value": 39.47, "unit": "%"},
      {"measurement": "% of CUG foci free nuclei (DNA-PKi)", "setting": "[2]", "value": 86.21, "unit": "%"},
      {"measurement": "% of CUG foci free nuclei (Vehicle)", "setting": "[2]", "value": 76.50, "unit": "%"}
    ]},
    {"substance": "SaU8 + SaD17: SaCas9 sgRNA pair, SEQ ID NOs: 8 and 25 (guide 1 GGCTCGAAGGGTCCTTGTAGCC; guide 2 TTTATTCGCGAGGGTCGGGGGT; listed as DNA, chemistry not fully specified)", "values": [
      {"measurement": "% of CTG repeat excision efficiency by ddPCR (DNA-PKi)", "setting": "[1]", "value": 49.09, "unit": "%"},
      {"measurement": "% of CTG repeat excision efficiency by ddPCR (Vehicle)", "setting": "[1]", "value": 30.50, "unit": "%"},
      {"measurement": "% of CUG foci free nuclei (DNA-PKi)", "setting": "[2]", "value": 79.35, "unit": "%"},
      {"measurement": "% of CUG foci free nuclei (Vehicle)", "setting": "[2]", "value": 52.34, "unit": "%"}
    ]},
    {"substance": "SaU8 + SaD18: SaCas9 sgRNA pair, SEQ ID NOs: 8 and 26 (guide 1 GGCTCGAAGGGTCCTTGTAGCC; guide 2 GGGCCTTTTATTCGCGAGGGTC; listed as DNA, chemistry not fully specified)", "values": [
      {"measurement": "% of CTG repeat excision efficiency by ddPCR (DNA-PKi)", "setting": "[1]", "value": 44.51, "unit": "%"},
      {"measurement": "% of CTG repeat excision efficiency by ddPCR (Vehicle)", "setting": "[1]", "value": 18.17, "unit": "%"},
      {"measurement": "% of CUG foci free nuclei (DNA-PKi)", "setting": "[2]", "value": 70.76, "unit": "%"},
      {"measurement": "% of CUG foci free nuclei (Vehicle)", "setting": "[2]", "value": 36.66, "unit": "%"}
    ]},
    {"substance": "SaU8 + SaD19: SaCas9 sgRNA pair, SEQ ID NOs: 8 and 27 (guide 1 GGCTCGAAGGGTCCTTGTAGCC; guide 2 AGGACCCCCACCCCCGACCCTC; listed as DNA, chemistry not fully specified)", "values": [
      {"measurement": "% of CTG repeat excision efficiency by ddPCR (DNA-PKi)", "setting": "[1]", "value": 46.04, "unit": "%"},
      {"measurement": "% of CTG repeat excision efficiency by ddPCR (Vehicle)", "setting": "[1]", "value": 28.95, "unit": "%"},
      {"measurement": "% of CUG foci free nuclei (DNA-PKi)", "setting": "[2]", "value": 83.45, "unit": "%"},
      {"measurement": "% of CUG foci free nuclei (Vehicle)", "setting": "[2]", "value": 61.41, "unit": "%"}
    ]},
    {"substance": "SaU8 +SaD3: SaCas9 sgRNA pair, SEQ ID NOs: 8 and 11 (guide 1 GGCTCGAAGGGTCCTTGTAGCC; guide 2 CAACGATAGGTGGGGGTGCGTG; listed as DNA, chemistry not fully specified)", "values": [
      {"measurement": "% of CTG repeat excision efficiency by ddPCR (DNA-PKi)", "setting": "[1]", "value": 59.28, "unit": "%"},
      {"measurement": "% of CTG repeat excision efficiency by ddPCR (Vehicle)", "setting": "[1]", "value": 48.19, "unit": "%"},
      {"measurement": "% of CUG foci free nuclei (DNA-PKi)", "setting": "[2]", "value": 82.41, "unit": "%"},
      {"measurement": "% of CUG foci free nuclei (Vehicle)", "setting": "[2]", "value": 57.67, "unit": "%"}
    ]},
    {"substance": "SaU8 +SaD10: SaCas9 sgRNA pair, SEQ ID NOs: 8 and 18 (guide 1 GGCTCGAAGGGTCCTTGTAGCC; guide 2 TTGGGGGTCCTGTAGCCTGTCA; listed as DNA, chemistry not fully specified)", "values": [
      {"measurement": "% of CTG repeat excision efficiency by ddPCR (DNA-PKi)", "setting": "[1]", "value": 69.07, "unit": "%"},
      {"measurement": "% of CTG repeat excision efficiency by ddPCR (Vehicle)", "setting": "[1]", "value": 48.45, "unit": "%"},
      {"measurement": "% of CUG foci free nuclei (DNA-PKi)", "setting": "[2]", "value": 82.92, "unit": "%"},
      {"measurement": "% of CUG foci free nuclei (Vehicle)", "setting": "[2]", "value": 74.46, "unit": "%"}
    ]},
    {"substance": "SaU8 +SaD11: SaCas9 sgRNA pair, SEQ ID NOs: 8 and 19 (guide 1 GGCTCGAAGGGTCCTTGTAGCC; guide 2 CAAAACGTGGATTGGGGTTGTT; listed as DNA, chemistry not fully specified)", "values": [
      {"measurement": "% of CTG repeat excision efficiency by ddPCR (DNA-PKi)", "setting": "[1]", "value": 47.57, "unit": "%"},
      {"measurement": "% of CTG repeat excision efficiency by ddPCR (Vehicle)", "setting": "[1]", "value": 31.52, "unit": "%"},
      {"measurement": "% of CUG foci free nuclei (DNA-PKi)", "setting": "[2]", "value": 70.97, "unit": "%"},
      {"measurement": "% of CUG foci free nuclei (Vehicle)", "setting": "[2]", "value": 44.65, "unit": "%"}
    ]},
    {"substance": "SaU8 +SaD13: SaCas9 sgRNA pair, SEQ ID NOs: 8 and 21 (guide 1 GGCTCGAAGGGTCCTTGTAGCC; guide 2 CCCAACAACCCCAATCCACGTT; listed as DNA, chemistry not fully specified)", "values": [
      {"measurement": "% of CTG repeat excision efficiency by ddPCR (DNA-PKi)", "setting": "[1]", "value": 51.64, "unit": "%"},
      {"measurement": "% of CTG repeat excision efficiency by ddPCR (Vehicle)", "setting": "[1]", "value": 29.46, "unit": "%"},
      {"measurement": "% of CUG foci free nuclei (DNA-PKi)", "setting": "[2]", "value": 77.05, "unit": "%"},
      {"measurement": "% of CUG foci free nuclei (Vehicle)", "setting": "[2]", "value": 43.66, "unit": "%"}
    ]},
    {"substance": "SaU8 +SaD20: SaCas9 sgRNA pair, SEQ ID NOs: 8 and 28 (guide 1 GGCTCGAAGGGTCCTTGTAGCC; guide 2 AGATGGAGGGCCTTTTATTCGC; listed as DNA, chemistry not fully specified)", "values": [
      {"measurement": "% of CTG repeat excision efficiency by ddPCR (DNA-PKi)", "setting": "[1]", "value": 62.59, "unit": "%"},
      {"measurement": "% of CTG repeat excision efficiency by ddPCR (Vehicle)", "setting": "[1]", "value": 39.72, "unit": "%"},
      {"measurement": "% of CUG foci free nuclei (DNA-PKi)", "setting": "[2]", "value": 81.21, "unit": "%"},
      {"measurement": "% of CUG foci free nuclei (Vehicle)", "setting": "[2]", "value": 71.20, "unit": "%"}
    ]}
  ]
}
